Melting point data for 23 compounds are collected here from patent publication US20100041892A1, “Therapeutic agent for diabetes” (priority 2005, published 2010).

What is called melting point is the temperature of the solid-liquid transition.

Each structure is given as a SMILES string.

In the case of `CCCCS(=O)(=O)NC(=O)OCCCc1ccc(OCCOC)cc1Oc1ncc(C(F)(F)F)cc1Cl.O` (hydrate or solvate), the melting point was 94 to 96 °C.
With `C=CCOC(=O)NS(=O)(=O)CCc1cc(OCCCC)nn1Cc1ccc(Cl)cc1Cl` [Example 137, allyl ({2-[3-butoxy-1-(2,4-dichlorobenzyl)-1H-pyrazol-5-yl]ethyl}sulfonyl)carbamate] the figure was 94 to 95 °C; with `CCCCCCS(=O)(=O)NC(=O)CCc1cc(OC(C)C)nn1Cc1ccc(Cl)cc1Cl` [Example 87, 3-[1-(2,4-dichlorobenzyl)-3-isopropoxy-1H-pyrazol-5-yl]-N-(hexylsulfonyl)propanamide], 103 to 106 °C; with `CCCCCS(=O)(=O)NC(=O)CCc1ccc(OCCOC)cc1Oc1ccccc1` [Example 219, 3-[4-(2-methoxyethoxy)-2-phenoxyphenyl]-N-(pentylsulfonyl)propanamide], 70.4 to 70.5 °C.
With `COCCCNC(=O)OCCCc1ccc(OCCOC)cc1Oc1ncc(C(F)(F)F)cc1Cl` [Example 55, 3-[2-{[3-chloro-5-(trifluoromethyl)pyridin-2-yl]oxy}-4-(2-methoxyethoxy)phenyl]propyl (3-methoxypropyl)carbamate] the figure was 83.5 to 85 °C.
With `COCCOc1ccc(/C=C/C(=O)NS(=O)(=O)c2ccccn2)c(Oc2ncc(C(F)(F)F)cc2Cl)c1` [Example 239, (2E)-3-[2-{[3-chloro-5-(trifluoromethyl)pyridin-2-yl]oxy}-4-(2-methoxyethoxy)phenyl]-N-(pyridin-2-ylsulfonyl)acrylamide] the figure was 164 to 165 °C.
For `CCCCCC(=O)NS(=O)(=O)CCc1cc(OC(C)C)nn1Cc1ccc(Cl)cc1Cl` [Example 126, N-({2-[1-(2,4-dichlorobenzyl)-3-isopropoxy-1H-pyrazol-5-yl]ethyl}sulfonyl)hexanamide], the melting point was in the range of 107 to 108 °C.
With `COCCCS(=O)(=O)NC(=O)CC(C)c1ccc(OCCOC)cc1Oc1ncc(C(F)(F)F)cc1Cl` (centres unmarked) [Example 78, 3-[2-{[3-chloro-5-(trifluoromethyl)pyridin-2-yl]oxy}-4-(2-methoxyethoxy)phenyl]-N-[(3-methoxypropyl)sulfonyl]butanamide] the figure was 107 to 109 °C; with `COCCOc1ccc(CCCNS(=O)(=O)Cc2ccccc2)c(Oc2ncc(C(F)(F)F)cc2Cl)c1` [Example 19, N-{3-[2-{[3-chloro-5-(trifluoromethyl)pyridin-2-yl]oxy}-4-(2-methoxyethoxy)phenyl]propyl}-1-phenylmethanesulfonamide], 97 to 100 °C; with `CCCCCS(=O)(=O)NC(=O)/C=C/c1ccc(OCCOC)cc1Nc1ccc(C(F)(F)F)cc1Cl` [Example 184, (2E)-3-[2-{[2-chloro-4-(trifluoromethyl)phenyl]amino}-4-(2-methoxyethoxy)phenyl]-N-(pentylsulfonyl)acrylamide], 173.5 to 174.8 °C.
With `CC(C)Oc1cc(CCCNC(=O)NS(=O)(=O)c2ccccc2)n(Cc2ccc(Cl)cc2Cl)n1` [Example 39, N-[({3-[1-(2,4-dichlorobenzyl)-3-isopropoxy-1H-pyrazol-5-yl]propyl}amino)carbonyl]benzenesulfonamide] the figure was 149 °C.
As for `CC(C)Oc1cc(CCC(=O)NS(=O)(=O)CCCc2ccccc2)n(Cc2ccc(Cl)cc2Cl)n1` [Example 91, 3-[1-(2,4-dichlorobenzyl)-3-isopropoxy-1H-pyrazol-5-yl]-N-[(3-phenylpropyl)sulfonyl]propanamide], the figure is 132 to 134 °C.
Regarding `COCCOc1ccc(CCCOC(=O)NS(=O)(=O)c2ccc(C)cc2)c(Oc2ncc(C(F)(F)F)cc2Cl)c1.O` (hydrate or solvate) [Example 30, 3-[2-{[3-chloro-5-(trifluoromethyl)pyridin-2-yl]oxy}-4-(2-methoxyethoxy)phenyl]propyl [(4-methylphenyl)sulfonyl]carbamate monohydrate], the melting point was in the range of 118 to 120 °C.
For the compound `COCCOc1ccc(CCC(=O)NS(N)(=O)=O)c(Oc2ncc(C(F)(F)F)cc2Cl)c1` [Example 73, N-(aminosulfonyl)-3-[2-{[3-chloro-5-(trifluoromethyl)pyridin-2-yl]oxy}-4-(2-methoxyethoxy)phenyl]propanamide], the melting point lay in the range of 158 to 159 °C.
As for `CCCCCS(=O)(=O)NC(=O)/C=C/c1ccc(OCCOC(C)=O)cc1Oc1ncc(C(F)(F)F)cc1Cl` [Example 194, 2-(3-{[3-chloro-5-(trifluoromethyl)pyridin-2-yl]oxy}-4-{(1E)-3-oxo-3-[(pentylsulfonyl)amino]prop-1-en-1-yl}phenoxy)ethyl acetate], the figure is 141 to 144 °C; as for `COCCOc1ccc(/C=C/C(=O)NS(=O)(=O)CC(F)(F)F)c(Oc2ncc(C(F)(F)F)cc2Cl)c1` [Example 246, (2E)-3-[2-{[3-chloro-5-(trifluoromethyl)pyridin-2-yl]oxy}-4-(2-methoxyethoxy)phenyl]-N-[(2,2,2-trifluoroethyl)sulfonyl]acrylamide], 146 to 147.5 °C.
With `CCCCCS(=O)(=O)NC(=O)OCc1ccc(OC(C)C)cc1Oc1ncc(C(F)(F)F)cc1Cl` [Example 63, 2-{[3-chloro-5-(trifluoromethyl)pyridin-2-yl]oxy}-4-isopropoxybenzyl (pentylsulfonyl)carbamate] the figure was 70 to 73 °C.
For `CCCCOc1cc(CCS(=O)(=O)NC(=O)OCCC)n(Cc2ccc(Cl)cc2Cl)n1` [Example 132, propyl ({2-[3-butoxy-1-(2,4-dichlorobenzyl)-1H-pyrazol-5-yl]ethyl}sulfonyl)c arbamate], the melting point was 92 to 94 °C.
For the compound `CC(C)CCS(=O)(=O)NC(=O)OCc1cc(OC(C)C)nn1Cc1ccc(Cl)cc1Cl` [Example 141, [1-(2,4-dichlorobenzyl)-3-isopropoxy-1H-pyrazol-5-yl]methyl [(3-methylbutyl)sulfonyl]carbamate], the melting point is 104 to 107 °C.
As for `COCCOc1ccc(COC(=O)NS(=O)(=O)c2ccc(Cl)cc2)c(Oc2ncc(C(F)(F)F)cc2Cl)c1` [Example 65, 2-{[3-chloro-5-(trifluoromethyl)pyridin-2-yl]oxy}-4-(2-methoxyethoxy)benzyl [(4-chlorophenyl)sulfonyl]carbamate], the figure is 112 to 115 °C; as for `CC(C)Oc1cc(CCC(=O)NS(=O)(=O)C(C)C)n(Cc2ccc(Cl)cc2Cl)n1` [Example 89, 3-[1-(2,4-dichlorobenzyl)-3-isopropoxy-1H-pyrazol-5-yl]-N-(isopropylsulfonyl)propanamide], 135 to 136 °C.
On to `CCCCCNS(=O)(=O)NC(=O)/C=C/c1ccc(OCCOC)cc1Oc1ncc(C(F)(F)F)cc1Cl` [Example 215, (2E)-3-[2-{[3-chloro-5-(trifluoromethyl)pyridin-2-yl]oxy}-4-(2-methoxyethoxy)phenyl]-N-[(pentylamino)sulfonyl]acrylamide], for which the melting point was in the range of 120 to 122 °C.
For the compound `CCCCOc1ccc(CCCOC(=O)NS(=O)(=O)NCCOC(C)C)c(Oc2ncc(C(F)(F)F)cc2Cl)c1` [Example 473, 3-(4-butoxy-2-{[3-chloro-5-(trifluoromethyl)pyridin-2-yl]oxy}phenyl)propyl {[(2-isopropoxyethyl)amino]sulfonyl}carbamate], the melting point lay in the range of 91.4 to 91.6 °C.
